In the supplement of paper PMC10307832:

How the values were obtained:
Assay in all cases: relative viability (nuclei count vs DMSO), 5 days (fraction); higher = more cells survive
RAF265 + Lapatinib = compound: Cn1c(Nc2ccc(C(F)(F)F)cc2)nc2cc(Oc3ccnc(-c4ncc(C(F)(F)F)[nH]4)c3)ccc21 [RAF265] + CS(=O)(=O)CCNCc1ccc(-c2ccc3ncnc(Nc4ccc(OCc5cccc(F)c5)c(Cl)c4)c3c2)o1 [Lapatinib] (partner 2 µM)
Summary of the method: (§1)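 Relative viability equals treated-well nuclei counts divided by vehicle-well nuclei counts. Counts came from 4× images of lung cancer cell lines grown in 1536-well plates for 5 days after pin-tool dosing on the day after seeding. Dosing used one drug alone or a fixed anchor-drug dose plus five library-drug doses (not always all listed) in √10 steps, and values are medians of duplicate plates.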

RAF265 + Crizotinib = compound: Cn1c(Nc2ccc(C(F)(F)F)cc2)nc2cc(Oc3ccnc(-c4ncc(C(F)(F)F)[nH]4)c3)ccc21 [RAF265] + C[C@@H](Oc1cc(-c2cnn(C3CCNCC3)c2)cnc1N)c1c(Cl)ccc(F)c1Cl [Crizotinib] (partner 1 µM)
Summary of the method: as §1

RAF265 + Foretinib = compound: Cn1c(Nc2ccc(C(F)(F)F)cc2)nc2cc(Oc3ccnc(-c4ncc(C(F)(F)F)[nH]4)c3)ccc21 [RAF265] + COc1cc2c(Oc3ccc(NC(=O)C4(C(=O)Nc5ccc(F)cc5)CC4)cc3F)ccnc2cc1OCCCN1CCOCC1 [Foretinib] (partner 0.25 µM)
Summary of the method: as §1

Doramapimod + Bortezomib = compound: Cc1ccc(-n2nc(C(C)(C)C)cc2NC(=O)Nc2ccc(OCCN3CCOCC3)c3ccccc23)cc1 [Doramapimod] + CC(C)C[C@H](NC(=O)[C@H](Cc1ccccc1)NC(=O)c1cnccn1)B(O)O [Bortezomib] (partner 0.002 µM)
Summary of the method: as §1

Cell Line	relative viability (RAF265 + Lapatinib; first compound 0.01 µM)	relative viability (RAF265 + Lapatinib; first compound 0.03162 µM)	relative viability (RAF265 + Lapatinib; first compound 0.1 µM)	relative viability (RAF265 + Lapatinib; first compound 0.3162 µM)	relative viability (RAF265 + Lapatinib; first compound 1 µM)	relative viability (RAF265 + Crizotinib; first compound 0.01 µM)	relative viability (RAF265 + Crizotinib; first compound 0.03162 µM)	relative viability (RAF265 + Crizotinib; first compound 0.1 µM)	relative viability (RAF265 + Crizotinib; first compound 0.3162 µM)	relative viability (RAF265 + Crizotinib; first compound 1 µM)	relative viability (RAF265 + Foretinib; first compound 0.01 µM)	relative viability (RAF265 + Foretinib; first compound 0.03162 µM)	relative viability (RAF265 + Foretinib; first compound 0.1 µM)	relative viability (RAF265 + Foretinib; first compound 0.3162 µM)	relative viability (RAF265 + Foretinib; first compound 1 µM)	relative viability (Doramapimod + Bortezomib; first compound 0.02 µM)	relative viability (Doramapimod + Bortezomib; first compound 0.06325 µM)	relative viability (Doramapimod + Bortezomib; first compound 0.2 µM)	relative viability (Doramapimod + Bortezomib; first compound 2 µM)	relative viability (Doramapimod + Bortezomib; first compound 0.6325 µM)
SK-LU-1	0.685	0.669	0.669	0.61	0.34	0.45	0.753	0.73	0.477	0.397	0.889	0.615	0.491	0.411	0.318	1.41	1.37	1.51	1.15	
LOU-NH91	0.763	0.719	0.664	0.808	0.572	0.758	0.728	0.752	0.529	0.59	1.04	0.845	0.954	0.582	0.71	0.47	0.506	0.532	0.672	0.444
LXF-289	0.942	0.953	0.858	0.785	0.743	0.849	0.81	0.872	0.677	0.684	0.999	0.986	0.938	0.875	0.709	1.01	1.02	1.03	0.907	1.02
NCI-H1299	0.926	0.918	0.955	0.69	0.742	0.966	0.95	0.93	0.703	0.645	1.12	0.863	1.08	1.07	0.749	1.03	1.09	1.04	1.05	1.06
HARA	0.889	0.752	0.633	0.493	0.421	1.1	0.965	1.03	0.906	0.652	0.573	0.777	0.931	0.53	0.38	1.15	1.03	1.14	0.994	1.04
LU99A	1.02	0.838	0.61	0.496	0.324	0.576	0.467	0.521	0.344	0.255	0.837	0.745	0.624	0.522	0.332	1.03	1.15	1.12	0.922	1.15
201T	1.02	1.04	1.04	1.06	1.04	1.08	0.996	1.05	1.06	1.08	1.1	1.1	1.09	1.21	0.945	1.16	1.16	1.09	1.16	1.29
HCC-827	0.186	0.197	0.196		0.147	0.931	1	1.01		0.871	0.986	0.971	1.06		0.729	0.963	1.03	1.01	0.969	0.931
NCI-H1666	1.06	0.629	0.856	0.791	0.53	1.11	1.08	1.06	0.971	0.651	1.11	0.936	0.985	1.01	0.81	0.83	0.784	0.826	0.725	0.842
NCI-H1915	0.968	0.92	0.909	0.715	0.371	0.875	0.81	0.727	0.496	0.234	1.09	1.05	0.869	0.348	0.306	0.978	1.09	1.04	0.936	1.02
NCI-H2009	1.01	0.941	0.85	0.885	0.691	1.07	0.91	0.96	0.805	0.629	1.29	1.25	1.14	1.1	0.658	1.08	1.06	1.18	0.962	0.246
ChaGo-K-1						1.15	1.15	1.18	1.05	0.792	0.969	0.827	0.825	0.819	0.646	1.04	1.29	1.29	0.646	
COR-L 105	0.341	0.376	0.383	0.342	0.322	0.844	0.689	0.755	0.503	0.297	1.29	1.5	1.1	1.15	0.614	0.848	0.772	0.959	0.779	0.807
NCI-H2170	0.278	0.306	0.284	0.296	0.287	1.22	1.08	1.09	0.784	0.771	1.05	0.971	0.978	0.805	0.88					
A549	0.906	0.853	0.987	0.465	0.463	0.72	0.656	0.677	0.511	0.36	0.927	0.928	0.988	0.557	0.481					
SW 1573	1.15	1.18	1.18	1.04	0.824	0.869	0.632	0.842	0.663	0.406	1	1.01	0.887	0.792	0.732	0.944	0.927	0.813	0.875	0.764
NCI-H1975	0.809	0.791	0.618	0.469	0.412	0.894	0.77	0.679	0.456	0.451	0.88	0.74	0.639	0.383	0.333	0.321	0.324	0.266	0.327	0.363
Calu-6	1.01	0.875	0.877	0.485	0.388	0.73	0.709	0.658	0.529	0.276	0.899	0.782	0.763	0.428	0.29	1.05	1.03	1.02	1.03	1.11
SW 900											1.01	0.835	0.748	0.769	0.546					

Cell Line	relative viability (RAF265 + Lapatinib; first compound 0.01 µM)	relative viability (RAF265 + Lapatinib; first compound 0.03162 µM)	relative viability (RAF265 + Lapatinib; first compound 0.1 µM)	relative viability (RAF265 + Lapatinib; first compound 0.3162 µM)	relative viability (RAF265 + Lapatinib; first compound 1 µM)	relative viability (RAF265 + Crizotinib; first compound 0.01 µM)	relative viability (RAF265 + Crizotinib; first compound 0.03162 µM)	relative viability (RAF265 + Crizotinib; first compound 0.1 µM)	relative viability (RAF265 + Crizotinib; first compound 0.3162 µM)	relative viability (RAF265 + Crizotinib; first compound 1 µM)	relative viability (RAF265 + Foretinib; first compound 0.01 µM)	relative viability (RAF265 + Foretinib; first compound 0.03162 µM)	relative viability (RAF265 + Foretinib; first compound 0.1 µM)	relative viability (RAF265 + Foretinib; first compound 0.3162 µM)	relative viability (RAF265 + Foretinib; first compound 1 µM)	relative viability (Doramapimod + Bortezomib; first compound 0.02 µM)	relative viability (Doramapimod + Bortezomib; first compound 0.06325 µM)	relative viability (Doramapimod + Bortezomib; first compound 0.2 µM)	relative viability (Doramapimod + Bortezomib; first compound 2 µM)	relative viability (Doramapimod + Bortezomib; first compound 0.6325 µM)
NCI-H1623											0.977	0.867	0.983	0.39	0.562					
NCI-H3122	1.04	1.11	1.07	0.953	0.98	0.305	0.287	0.305	0.251	0.283	0.963	1	1	0.953	0.635	1.04	0.983	0.949	0.91	1.07
NCI-H2347	1.1	0.915	0.998	0.887	0.435	0.699	0.664	0.504	0.551	0.287	0.93	0.971	0.81	0.592	0.803		0.72	1.19	0.963	1.07
HCC-44	0.994	0.895	0.993	1.04	0.968	0.791	0.679	0.854	0.83	0.772						0.941	1.01	0.814	0.833	0.86
HCC-78	0.902	0.702	1.24	0.938	0.209	0.337	0.288	0.381	0.301	0.359	0.512	0.587	0.583	0.617	0.526	0.334	0.49	0.432	0.457	0.642
COR-L23	1.02	0.982	1.02	0.748	0.62	0.799	0.75	0.638	0.465	0.424	1.01	0.962	0.864	0.893	0.644	1.12	0.914	0.962	0.969	0.997
NCI-H1993	0.789	0.833	0.995	0.908	0.967	0.725	0.85	0.993	0.759	0.758	0.86	0.729	0.783	0.777	0.575	1.3	0.993	1.03	0.97	1.53
NCI-H2405	1.09	1.08	0.924	0.999	0.607	0.846	0.803	0.872	0.756	0.566	1.03	1.01	1	0.935	0.701	0.98	1.03	0.984	0.961	0.712
NCI-H2126	0.765	0.732	0.718	0.756	0.662	1.02	1.04	1.03	0.96	0.754	1.16	1.2	1.17	1.11	0.668	1.2	1.14	1.11	1.07	1.16
NCI-H1944	0.79	0.966	0.924	0.75	0.562	1.09	1.26	1.08	0.794	0.664	0.939	0.913	0.906	0.762	0.461					
NCI-H358	0.491	0.524	0.336	0.434	0.341	0.618	0.597	0.5	0.395	0.23	0.623	0.641	0.448	0.239	0.215					
LCLC-103H						1.06	1.05	1.07	1	0.713	0.802	0.587	0.645	0.504	0.39	1.19	0.986	1.04	1.03	1.2
NCI-H1792	0.928	0.843	0.946	0.913	0.593	1.01	0.989	0.977	0.839	0.419						0.946	0.952	0.948	0.831	1.05
NCI-H2342											1.11	1.06	1.12	0.992	0.968					
NCI-H1793	0.652	0.658	0.631	0.296	0.512						0.632	0.616	0.624		0.261					
SK-MES-1	0.468	0.449	0.366	0.349	0.269	1	0.88	0.919	0.334	0.242	1.04	0.932	0.816	0.529	0.369					
LK-2	0.879	0.875	1.06	1.03	0.632	0.203	0.222	0.239	0.237	0.223	1.07	1.13	0.952	1.05	0.862					
NCI-H1395	1.41	0.943	0.957	0.942	0.912						0.915	1.02	0.972	0.972	0.697					
NCI-H441						0.779	0.656	0.715	0.73	0.473	1.28	1.04	0.966	0.884	0.623	0.308		0.522	0.266	0.362
